Reference: PubChem BioAssay AID1982 (Sanford-Burnham Center for Chemical Genomics, 2009)
The source made the active and inactive calls. The rule behind the calls is not given here.

What was measured:
Assay in all cases: kinase panel binding selectivity, selectivity assay, biochemical, KINOMEscan (AID 1982)
[1] = test system: BMPR1B; details: KINOMEscan 353-kinase binding panel, qPCR, at 10 µM, active compounds read low
[2] = test system: CAMK1G; details: KINOMEscan 353-kinase binding panel, qPCR, at 10 µM, active compounds read low
[3] = test system: CSNK2A2; details: KINOMEscan 353-kinase binding panel, qPCR, at 10 µM, active compounds read low
[4] = molecular target: Cyclin-dependent kinase 9 (Homo sapiens) (UniProt P50750); details: KINOMEscan 353-kinase binding panel, qPCR; CDK9; at 10 µM; active compounds read low
[5] = test system: DMPK2; details: KINOMEscan 353-kinase binding panel, qPCR, at 10 µM, active compounds read low
[6] = molecular target: Ephrin type-A receptor 2 (Homo sapiens) (UniProt P29317); details: KINOMEscan 353-kinase binding panel, qPCR; EPHA2; at 10 µM; active compounds read low
[7] = test system: FGFR2; details: KINOMEscan 353-kinase binding panel, qPCR, at 10 µM, active compounds read low
[8] = molecular target: Inhibitor of nuclear factor kappa-B kinase subunit alpha (Homo sapiens) (UniProt O15111); details: KINOMEscan 353-kinase binding panel, qPCR; IKK-alpha; at 10 µM; active compounds read low
[9] = molecular target: Inhibitor of nuclear factor kappa-B kinase subunit epsilon (Homo sapiens) (UniProt Q14164); details: KINOMEscan 353-kinase binding panel, qPCR; IKK-epsilon; at 10 µM; active compounds read low
[10] = test system: MEK2; details: KINOMEscan 353-kinase binding panel, qPCR, at 10 µM, active compounds read low
[11] = test system: MEK6; details: KINOMEscan 353-kinase binding panel, qPCR, at 10 µM, active compounds read low
[12] = molecular target: Mitogen-activated protein kinase kinase kinase 20 (Homo sapiens) (UniProt Q9NYL2); details: KINOMEscan 353-kinase binding panel, qPCR; ZAK; at 10 µM; active compounds read low
[13] = molecular target: Mitogen-activated protein kinase kinase kinase 5 (Homo sapiens) (UniProt Q99683); details: KINOMEscan 353-kinase binding panel, qPCR; MAP3K5; at 10 µM; active compounds read low
[14] = molecular target: Mitogen-activated protein kinase kinase kinase kinase 2 (Homo sapiens) (UniProt Q12851); details: KINOMEscan 353-kinase binding panel, qPCR; MAP4K2; at 10 µM; active compounds read low
[15] = molecular target: Mitogen-activated protein kinase kinase kinase kinase 4 (Homo sapiens) (UniProt O95819); details: KINOMEscan 353-kinase binding panel, qPCR; MAP4K4; at 10 µM; active compounds read low
[16] = molecular target: Non-receptor tyrosine-protein kinase TYK2 (Homo sapiens) (UniProt P29597); details: KINOMEscan 353-kinase binding panel, qPCR, at 10 µM, active compounds read low
[17] = test system: PFTAIRE2; details: KINOMEscan 353-kinase binding panel, qPCR, at 10 µM, active compounds read low
[18] = test system: PRKCE; details: KINOMEscan 353-kinase binding panel, qPCR, at 10 µM, active compounds read low
[19] = molecular target: Phosphatidylinositol 5-phosphate 4-kinase type-2 beta (Homo sapiens) (UniProt P78356); details: KINOMEscan 353-kinase binding panel, qPCR; PIP5K2B; at 10 µM; active compounds read low
[20] = molecular target: Platelet-derived growth factor receptor alpha (Homo sapiens) (UniProt P16234); details: KINOMEscan 353-kinase binding panel, qPCR; PDGFRA; at 10 µM; active compounds read low
[21] = molecular target: Protein-tyrosine kinase 6 (Homo sapiens) (UniProt Q13882); details: KINOMEscan 353-kinase binding panel, qPCR; PTK6; at 10 µM; active compounds read low
[22] = test system: RIOK1; details: KINOMEscan 353-kinase binding panel, qPCR, at 10 µM, active compounds read low
[23] = test system: RIPK2; details: KINOMEscan 353-kinase binding panel, qPCR, at 10 µM, active compounds read low
[24] = test system: SRPK3; details: KINOMEscan 353-kinase binding panel, qPCR, at 10 µM, active compounds read low
[25] = molecular target: Serine/threonine-protein kinase 3 (Homo sapiens) (UniProt Q13188); details: KINOMEscan 353-kinase binding panel, qPCR; MST2; at 10 µM; active compounds read low
[26] = molecular target: Serine/threonine-protein kinase SIK2 (Homo sapiens) (UniProt Q9H0K1); details: KINOMEscan 353-kinase binding panel, qPCR; SNF1LK2; at 10 µM; active compounds read low
[27] = molecular target: Serine/threonine-protein kinase pim-2 (Homo sapiens) (UniProt Q9P1W9); details: KINOMEscan 353-kinase binding panel, qPCR; PIM2; at 10 µM; active compounds read low
[28] = molecular target: Tyrosine-protein kinase receptor UFO (Homo sapiens) (UniProt P30530); details: KINOMEscan 353-kinase binding panel, qPCR; AXL; at 10 µM; active compounds read low
[29] = molecular target: cAMP-dependent protein kinase catalytic subunit alpha (Homo sapiens) (UniProt P17612); details: KINOMEscan 353-kinase binding panel, qPCR; PKAC-alpha; at 10 µM; active compounds read low
[30] = molecular target: cGMP-dependent protein kinase 1 (Homo sapiens) (UniProt Q13976); details: KINOMEscan 353-kinase binding panel, qPCR; PRKG1; at 10 µM; active compounds read low

Measured: percent of control binding

Non-receptor tyrosine-protein kinase TYK2 (Homo sapiens), sequence (P29597 whole entry, looked up): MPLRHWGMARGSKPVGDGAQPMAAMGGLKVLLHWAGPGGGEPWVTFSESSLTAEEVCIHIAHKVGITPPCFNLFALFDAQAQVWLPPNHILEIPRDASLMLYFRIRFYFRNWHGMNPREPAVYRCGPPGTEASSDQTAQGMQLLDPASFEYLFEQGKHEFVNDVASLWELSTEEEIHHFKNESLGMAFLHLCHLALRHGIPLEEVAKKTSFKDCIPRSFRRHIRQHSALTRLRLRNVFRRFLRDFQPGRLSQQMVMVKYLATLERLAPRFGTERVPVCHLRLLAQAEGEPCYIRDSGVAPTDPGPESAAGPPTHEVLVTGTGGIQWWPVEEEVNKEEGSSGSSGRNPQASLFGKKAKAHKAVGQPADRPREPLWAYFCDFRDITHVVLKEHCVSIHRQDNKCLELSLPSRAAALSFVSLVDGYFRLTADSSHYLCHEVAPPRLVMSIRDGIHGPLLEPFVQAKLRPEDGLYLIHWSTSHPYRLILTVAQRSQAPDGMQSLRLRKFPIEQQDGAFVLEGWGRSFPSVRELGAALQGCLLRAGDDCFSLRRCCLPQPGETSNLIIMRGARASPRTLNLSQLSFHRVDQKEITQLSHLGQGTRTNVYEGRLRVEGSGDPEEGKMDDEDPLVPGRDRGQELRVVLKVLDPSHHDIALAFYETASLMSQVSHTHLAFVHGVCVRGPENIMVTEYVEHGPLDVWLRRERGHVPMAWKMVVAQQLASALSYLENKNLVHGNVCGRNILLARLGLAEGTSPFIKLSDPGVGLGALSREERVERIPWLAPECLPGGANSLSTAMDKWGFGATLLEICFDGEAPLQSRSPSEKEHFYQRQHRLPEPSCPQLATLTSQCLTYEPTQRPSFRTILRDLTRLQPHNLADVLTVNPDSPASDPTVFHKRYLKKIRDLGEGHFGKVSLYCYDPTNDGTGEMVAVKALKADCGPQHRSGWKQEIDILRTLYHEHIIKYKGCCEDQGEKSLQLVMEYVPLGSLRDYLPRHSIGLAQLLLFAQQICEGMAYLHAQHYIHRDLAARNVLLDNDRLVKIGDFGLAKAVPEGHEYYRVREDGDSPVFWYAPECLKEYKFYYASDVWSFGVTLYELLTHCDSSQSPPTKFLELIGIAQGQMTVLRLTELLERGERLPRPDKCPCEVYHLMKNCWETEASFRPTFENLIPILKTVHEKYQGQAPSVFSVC
Tyrosine-protein kinase receptor UFO (Homo sapiens), sequence (P30530 whole entry, looked up): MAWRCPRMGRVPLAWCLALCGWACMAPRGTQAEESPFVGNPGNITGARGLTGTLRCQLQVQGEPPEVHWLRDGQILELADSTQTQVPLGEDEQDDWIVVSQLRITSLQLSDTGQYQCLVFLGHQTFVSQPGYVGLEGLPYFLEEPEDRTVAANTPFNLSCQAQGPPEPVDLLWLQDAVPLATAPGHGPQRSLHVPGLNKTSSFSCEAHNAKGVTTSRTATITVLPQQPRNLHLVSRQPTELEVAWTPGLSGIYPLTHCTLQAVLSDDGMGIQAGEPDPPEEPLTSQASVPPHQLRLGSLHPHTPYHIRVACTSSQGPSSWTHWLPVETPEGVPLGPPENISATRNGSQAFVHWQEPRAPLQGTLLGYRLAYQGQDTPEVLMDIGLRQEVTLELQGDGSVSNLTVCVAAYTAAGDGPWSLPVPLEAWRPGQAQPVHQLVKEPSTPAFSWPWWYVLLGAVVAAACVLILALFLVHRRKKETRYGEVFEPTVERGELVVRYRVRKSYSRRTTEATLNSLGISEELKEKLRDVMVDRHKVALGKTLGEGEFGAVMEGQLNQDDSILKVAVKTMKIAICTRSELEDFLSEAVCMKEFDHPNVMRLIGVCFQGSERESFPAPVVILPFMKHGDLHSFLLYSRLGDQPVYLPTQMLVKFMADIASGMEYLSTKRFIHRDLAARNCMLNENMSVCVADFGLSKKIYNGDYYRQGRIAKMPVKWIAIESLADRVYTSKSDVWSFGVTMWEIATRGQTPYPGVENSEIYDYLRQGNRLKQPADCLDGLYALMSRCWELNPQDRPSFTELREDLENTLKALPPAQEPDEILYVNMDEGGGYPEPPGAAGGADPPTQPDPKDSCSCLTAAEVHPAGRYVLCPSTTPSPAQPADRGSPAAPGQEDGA
Serine/threonine-protein kinase pim-2 (Homo sapiens), sequence (Q9P1W9 whole entry, looked up): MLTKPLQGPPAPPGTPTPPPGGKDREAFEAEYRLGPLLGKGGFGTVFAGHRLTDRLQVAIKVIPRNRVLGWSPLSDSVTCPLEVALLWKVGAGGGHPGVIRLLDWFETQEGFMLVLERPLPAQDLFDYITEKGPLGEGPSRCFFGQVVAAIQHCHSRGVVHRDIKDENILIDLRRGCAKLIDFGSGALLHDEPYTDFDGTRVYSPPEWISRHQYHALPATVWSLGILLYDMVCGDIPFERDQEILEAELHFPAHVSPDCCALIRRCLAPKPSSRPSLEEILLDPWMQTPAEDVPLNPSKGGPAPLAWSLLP
Mitogen-activated protein kinase kinase kinase kinase 4 (Homo sapiens), sequence (O95819 whole entry, looked up): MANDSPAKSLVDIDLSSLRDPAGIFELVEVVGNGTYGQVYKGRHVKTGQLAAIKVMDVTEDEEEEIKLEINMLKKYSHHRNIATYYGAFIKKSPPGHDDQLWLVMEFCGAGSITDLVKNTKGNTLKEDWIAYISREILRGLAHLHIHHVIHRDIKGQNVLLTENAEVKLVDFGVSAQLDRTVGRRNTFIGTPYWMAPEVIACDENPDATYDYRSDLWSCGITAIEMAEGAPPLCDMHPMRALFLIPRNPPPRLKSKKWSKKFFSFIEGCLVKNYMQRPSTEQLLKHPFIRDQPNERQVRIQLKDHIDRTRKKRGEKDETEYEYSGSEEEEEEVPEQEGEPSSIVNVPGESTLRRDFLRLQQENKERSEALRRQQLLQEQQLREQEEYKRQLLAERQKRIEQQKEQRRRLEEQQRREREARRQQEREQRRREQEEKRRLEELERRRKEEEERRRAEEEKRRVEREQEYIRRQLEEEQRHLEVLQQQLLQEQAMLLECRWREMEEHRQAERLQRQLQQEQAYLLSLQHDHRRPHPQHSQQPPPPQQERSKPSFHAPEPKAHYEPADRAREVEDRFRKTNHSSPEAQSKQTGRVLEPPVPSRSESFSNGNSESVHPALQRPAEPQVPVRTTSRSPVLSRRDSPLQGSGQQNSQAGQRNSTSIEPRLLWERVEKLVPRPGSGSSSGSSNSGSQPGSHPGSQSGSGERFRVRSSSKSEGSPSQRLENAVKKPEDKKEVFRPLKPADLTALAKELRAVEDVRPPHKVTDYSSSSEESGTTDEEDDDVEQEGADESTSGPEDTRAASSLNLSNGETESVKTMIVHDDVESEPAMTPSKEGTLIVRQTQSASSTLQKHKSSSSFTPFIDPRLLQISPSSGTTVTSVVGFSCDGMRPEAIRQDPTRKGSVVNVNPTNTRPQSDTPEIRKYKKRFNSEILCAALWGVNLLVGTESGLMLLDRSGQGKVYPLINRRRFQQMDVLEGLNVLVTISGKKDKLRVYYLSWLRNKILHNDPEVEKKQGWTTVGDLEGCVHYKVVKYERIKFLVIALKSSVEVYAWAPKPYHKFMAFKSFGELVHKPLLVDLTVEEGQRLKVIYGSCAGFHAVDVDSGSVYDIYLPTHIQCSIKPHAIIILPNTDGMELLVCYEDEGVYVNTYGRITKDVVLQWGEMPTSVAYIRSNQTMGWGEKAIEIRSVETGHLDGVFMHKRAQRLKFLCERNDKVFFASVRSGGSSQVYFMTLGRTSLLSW
Inhibitor of nuclear factor kappa-B kinase subunit epsilon (Homo sapiens), sequence (Q14164 whole entry, looked up): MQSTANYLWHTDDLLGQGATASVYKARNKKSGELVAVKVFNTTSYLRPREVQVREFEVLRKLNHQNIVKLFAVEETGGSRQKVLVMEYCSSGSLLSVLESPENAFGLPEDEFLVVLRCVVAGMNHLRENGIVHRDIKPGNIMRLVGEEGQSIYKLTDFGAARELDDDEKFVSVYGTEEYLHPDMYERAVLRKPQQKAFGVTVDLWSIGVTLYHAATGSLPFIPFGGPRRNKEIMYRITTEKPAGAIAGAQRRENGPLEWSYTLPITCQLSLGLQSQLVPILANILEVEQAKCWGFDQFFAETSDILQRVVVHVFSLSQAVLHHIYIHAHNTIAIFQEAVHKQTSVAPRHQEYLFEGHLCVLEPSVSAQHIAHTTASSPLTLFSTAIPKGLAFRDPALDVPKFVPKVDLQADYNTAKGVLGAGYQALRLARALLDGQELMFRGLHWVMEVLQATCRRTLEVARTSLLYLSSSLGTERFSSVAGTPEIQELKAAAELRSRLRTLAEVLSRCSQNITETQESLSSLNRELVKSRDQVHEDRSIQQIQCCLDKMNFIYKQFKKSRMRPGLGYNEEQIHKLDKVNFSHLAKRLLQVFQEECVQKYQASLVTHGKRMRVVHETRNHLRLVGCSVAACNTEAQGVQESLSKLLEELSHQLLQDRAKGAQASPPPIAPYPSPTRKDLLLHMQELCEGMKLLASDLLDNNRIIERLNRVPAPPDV
Cyclin-dependent kinase 9 (Homo sapiens), sequence (P50750 whole entry, looked up): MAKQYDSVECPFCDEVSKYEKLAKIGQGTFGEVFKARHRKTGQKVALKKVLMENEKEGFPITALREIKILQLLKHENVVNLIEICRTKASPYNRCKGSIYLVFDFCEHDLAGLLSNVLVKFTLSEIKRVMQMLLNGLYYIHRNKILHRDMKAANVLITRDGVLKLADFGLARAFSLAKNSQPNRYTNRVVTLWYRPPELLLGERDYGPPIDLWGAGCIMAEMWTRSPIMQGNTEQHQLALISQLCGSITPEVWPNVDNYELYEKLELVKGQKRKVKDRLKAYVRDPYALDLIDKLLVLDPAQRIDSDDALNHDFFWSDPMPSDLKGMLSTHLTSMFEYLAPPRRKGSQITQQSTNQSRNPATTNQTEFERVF

Cc1cc2nc(NCCCO)n(CC(=O)c3cc(C(C)(C)C)c(O)c(C(C)(C)C)c3)c2cc1C
inactive: [1] 100% | [2] 88% | [3] 98% | [4] 91% | [5] 72% | [6] 100% | [7] 100% | [8] 74% | [9] 86% | [10] 87% | [11] 97% | [12] 93% | [13] 100% | [14] 89% | [15] 66% | [16]; TYK2 Kin.Dom.1 84% | [16]; TYK2 Kin.Dom.2 98% | [17] 53% | [18] 64% | [19] 99% | [20] 86% | [21] 100% | [22] 100% | [23] 83% | [24] 87% | [25] 100% | [26] 100% | [27] 94% | [28] 84% | [29] 94% | [30] 100%
